Columns and labels:
Assay in all cases: relative viability (nuclei count vs DMSO), 5 days (fraction); higher = more cells survive
EBC-1 = system: EBC-1
Outline: (§1)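 Relative viability divides the nuclei count in treated wells by that in vehicle wells. Lung cancer cell lines were seeded in 1536-well plates, dosed by pin tool the next day, and fixed and stained after 5 days in one step with final 0.05% Triton X-100, 1% formaldehyde and 1 ug/ml Hoechst. Dosing was a single drug or a fixed anchor-drug dose plus five library-drug doses (not always all listed) in √10 steps, and values are medians of duplicate plates imaged at 4×.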

NCI-H1734 = system: NCI-H1734
Outline: as §1

Calu-6 = system: Calu-6
Outline: as §1

UMC-11 = system: UMC-11
Outline: as §1

NCI-H1299 = system: NCI-H1299
Outline: as §1

NCI-H1703 = system: NCI-H1703
Outline: as §1

CAL-12T = system: CAL-12T
Outline: as §1

A549 = system: A549
Outline: as §1

LK-2 = system: LK-2
Outline: as §1

NCI-H2009 = system: NCI-H2009
Outline: as §1

A-427 = system: A-427
Outline: as §1

IA-LM = system: IA-LM
Outline: as §1

NCI-H1650 = system: NCI-H1650
Outline: as §1

SMILES: Nc1ccn([C@@H]2O[C@H](CO)[C@@H](O)[C@@H]2O)c(=O)n1 [Cytarabine] + C[C@]1(O)C[C@@H](c2nc(-c3ccc4ccc(-c5ccccc5)nc4c3)c3c(N)nccn32)C1 [Linsitinib] (partner 1 µM)
- relative viability (EBC-1; first compound 0.005 µM): 0.742
- relative viability (EBC-1; first compound 0.01581 µM): 0.815
- relative viability (EBC-1; first compound 0.05 µM): 0.614
- relative viability (EBC-1; first compound 0.1581 µM): 0.461
- relative viability (EBC-1; first compound 0.5 µM): 0.296
- relative viability (NCI-H1734; first compound 0.005 µM): 0.512
- relative viability (NCI-H1734; first compound 0.01581 µM): 0.328
- relative viability (NCI-H1734; first compound 0.05 µM): 0.257
- relative viability (NCI-H1734; first compound 0.1581 µM): 0.141
- relative viability (NCI-H1734; first compound 0.5 µM): 0.128
- relative viability (Calu-6; first compound 0.005 µM): 0.928
- relative viability (Calu-6; first compound 0.01581 µM): 0.871
- relative viability (Calu-6; first compound 0.05 µM): 0.734
- relative viability (Calu-6; first compound 0.1581 µM): 0.444
- relative viability (Calu-6; first compound 0.5 µM): 0.283
- relative viability (UMC-11; first compound 0.005 µM): 0.637
- relative viability (UMC-11; first compound 0.01581 µM): 0.637
- relative viability (UMC-11; first compound 0.05 µM): 0.424
- relative viability (UMC-11; first compound 0.1581 µM): 0.246
- relative viability (UMC-11; first compound 0.5 µM): 0.226
- relative viability (NCI-H1299; first compound 0.005 µM): 0.928
- relative viability (NCI-H1299; first compound 0.01581 µM): 1.07
- relative viability (NCI-H1299; first compound 0.05 µM): 1
- relative viability (NCI-H1299; first compound 0.1581 µM): 1.05
- relative viability (NCI-H1299; first compound 0.5 µM): 0.886
- relative viability (NCI-H1703; first compound 0.005 µM): 0.339
- relative viability (NCI-H1703; first compound 0.01581 µM): 0.346
- relative viability (NCI-H1703; first compound 0.05 µM): 0.166
- relative viability (NCI-H1703; first compound 0.1581 µM): 0.107
- relative viability (NCI-H1703; first compound 0.5 µM): 0.0904
- relative viability (CAL-12T; first compound 0.005 µM): 0.72
- relative viability (CAL-12T; first compound 0.01581 µM): 0.878
- relative viability (CAL-12T; first compound 0.05 µM): 0.747
- relative viability (CAL-12T; first compound 0.1581 µM): 0.39
- relative viability (CAL-12T; first compound 0.5 µM): 0.203
- relative viability (A549; first compound 0.005 µM): 0.579
- relative viability (A549; first compound 0.01581 µM): 0.499
- relative viability (A549; first compound 0.05 µM): 0.407
- relative viability (A549; first compound 0.1581 µM): 0.0819
- relative viability (A549; first compound 0.5 µM): 0.0375
- relative viability (LK-2; first compound 0.005 µM): 0.494
- relative viability (LK-2; first compound 0.01581 µM): 0.58
- relative viability (LK-2; first compound 0.05 µM): 0.247
- relative viability (LK-2; first compound 0.1581 µM): 0.215
- relative viability (LK-2; first compound 0.5 µM): 0.162
- relative viability (NCI-H2009; first compound 0.005 µM): 1.11
- relative viability (NCI-H2009; first compound 0.01581 µM): 1.12
- relative viability (NCI-H2009; first compound 0.05 µM): 1.19
- relative viability (NCI-H2009; first compound 0.1581 µM): 0.83
- relative viability (NCI-H2009; first compound 0.5 µM): 0.411
- relative viability (A-427; first compound 0.005 µM): 0.909
- relative viability (A-427; first compound 0.01581 µM): 0.654
- relative viability (A-427; first compound 0.05 µM): 0.342
- relative viability (A-427; first compound 0.1581 µM): 0.181
- relative viability (A-427; first compound 0.5 µM): 0.196
- relative viability (IA-LM; first compound 0.005 µM): 0.326
- relative viability (IA-LM; first compound 0.01581 µM): 0.763
- relative viability (IA-LM; first compound 0.05 µM): 0.357
- relative viability (IA-LM; first compound 0.1581 µM): 0.243
- relative viability (IA-LM; first compound 0.5 µM): 0.201

SMILES: Cc1sc2c(c1C)C(c1ccc(Cl)cc1)=N[C@@H](CC(=O)OC(C)(C)C)c1nnc(C)n1-2 [JQ1] + CC(C)C[C@H](NC(=O)[C@H](Cc1ccccc1)NC(=O)c1cnccn1)B(O)O [Bortezomib] (partner 0.002 µM)
- relative viability (EBC-1; first compound 0.04 µM): 0.451
- relative viability (EBC-1; first compound 0.1265 µM): 0.245
- relative viability (EBC-1; first compound 0.4 µM): 0.219
- relative viability (EBC-1; first compound 1.265 µM): 0.168
- relative viability (EBC-1; first compound 4 µM): 0.19
- relative viability (NCI-H1734; first compound 0.04 µM): 0.967
- relative viability (NCI-H1734; first compound 0.1265 µM): 0.788
- relative viability (NCI-H1734; first compound 0.4 µM): 0.878
- relative viability (NCI-H1734; first compound 1.265 µM): 0.597
- relative viability (NCI-H1734; first compound 4 µM): 0.474
- relative viability (Calu-6; first compound 0.04 µM): 1.04
- relative viability (Calu-6; first compound 0.1265 µM): 0.931
- relative viability (Calu-6; first compound 0.4 µM): 0.815
- relative viability (Calu-6; first compound 1.265 µM): 0.663
- relative viability (Calu-6; first compound 4 µM): 0.391
- relative viability (NCI-H1650; first compound 0.04 µM): 0.177
- relative viability (NCI-H1650; first compound 0.1265 µM): 0.191
- relative viability (NCI-H1650; first compound 0.4 µM): 0.187
- relative viability (NCI-H1650; first compound 1.265 µM): 0.175
- relative viability (NCI-H1650; first compound 4 µM): 0.208
- relative viability (UMC-11; first compound 0.04 µM): 0.708
- relative viability (UMC-11; first compound 0.1265 µM): 0.522
- relative viability (UMC-11; first compound 0.4 µM): 0.367
- relative viability (UMC-11; first compound 1.265 µM): 0.216
- relative viability (UMC-11; first compound 4 µM): 0.136
- relative viability (NCI-H1299; first compound 0.04 µM): 1.03
- relative viability (NCI-H1299; first compound 0.1265 µM): 0.924
- relative viability (NCI-H1299; first compound 0.4 µM): 0.963
- relative viability (NCI-H1299; first compound 1.265 µM): 0.499
- relative viability (NCI-H1299; first compound 4 µM): 0.363
- relative viability (NCI-H1703; first compound 0.04 µM): 0.248
- relative viability (NCI-H1703; first compound 0.1265 µM): 0.206
- relative viability (NCI-H1703; first compound 0.4 µM): 0.19
- relative viability (NCI-H1703; first compound 1.265 µM): 0.122
- relative viability (NCI-H1703; first compound 4 µM): 0.102
- relative viability (CAL-12T; first compound 0.04 µM): 1.06
- relative viability (CAL-12T; first compound 0.4 µM): 0.638
- relative viability (CAL-12T; first compound 1.265 µM): 0.415
- relative viability (CAL-12T; first compound 4 µM): 0.317
- relative viability (NCI-H2009; first compound 0.04 µM): 0.947
- relative viability (NCI-H2009; first compound 0.1265 µM): 0.526
- relative viability (NCI-H2009; first compound 0.4 µM): 0.262
- relative viability (NCI-H2009; first compound 1.265 µM): 0.172
- relative viability (NCI-H2009; first compound 4 µM): 0.197
- relative viability (A-427; first compound 0.04 µM): 0.969
- relative viability (A-427; first compound 0.1265 µM): 1.04
- relative viability (A-427; first compound 0.4 µM): 0.979
- relative viability (A-427; first compound 1.265 µM): 0.682
- relative viability (A-427; first compound 4 µM): 0.474
- relative viability (IA-LM; first compound 0.04 µM): 0.643
- relative viability (IA-LM; first compound 0.1265 µM): 0.428
- relative viability (IA-LM; first compound 0.4 µM): 0.0917
- relative viability (IA-LM; first compound 1.265 µM): 0.0837
- relative viability (IA-LM; first compound 4 µM): 0.0676
